Assay results from patent publication US6403626B1, “Benzimidazole derivatives” (Synaptic Pharmaceutical Corporation, priority 1994, dated 2002).

Legend:
[1] = molecular target: α2C Human Adrenergic Receptor (Homo sapiens, UniProt P18825); assay: Equilibrium competition binding, [3H] rauwolscine, membranes of transfected LM(tk-) cells
[2] = molecular target: T1, α2B Human Adrenergic Receptor (Homo sapiens, UniProt P18089); type: cell-based
T1 construct: expressed in transfected cells; host or cells: Y-1 cells
T1 sequence (P18089 1-450): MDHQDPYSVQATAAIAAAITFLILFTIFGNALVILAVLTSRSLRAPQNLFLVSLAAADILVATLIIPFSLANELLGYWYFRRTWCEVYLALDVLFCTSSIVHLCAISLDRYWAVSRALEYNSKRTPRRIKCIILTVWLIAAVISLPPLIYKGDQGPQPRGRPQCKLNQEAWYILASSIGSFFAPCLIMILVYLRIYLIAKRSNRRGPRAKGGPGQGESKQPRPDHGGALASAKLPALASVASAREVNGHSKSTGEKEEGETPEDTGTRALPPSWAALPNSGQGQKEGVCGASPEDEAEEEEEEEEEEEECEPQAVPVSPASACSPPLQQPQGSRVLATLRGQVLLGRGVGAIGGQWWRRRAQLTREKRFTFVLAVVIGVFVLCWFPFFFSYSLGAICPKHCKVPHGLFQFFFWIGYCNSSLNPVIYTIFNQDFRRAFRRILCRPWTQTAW
Description: (§1) Binding and functional assays were performed using stably transfected human alpha adrenergic receptors. Equilibrium competition binding assays were performed with membrane preparations from cultured LM(tk-) cells stably transfected with the cloned human adrenoceptor subtypes except for α2b, which was expressed in Y-1 cells, using [^3H] prazosin for α1 receptors and [^3H] rauwolscine for α2 receptors.
Stable cell lines were selected as described above.
(§2) The agonist activity (expressed as pEC50) was measured as a function of the ability to inhibit the forskolin-stimulated synthesis of cyclic adenosine monophosphate (cAMP). The stably transfected cells were incubated in Ham's F10 with 5 mM theophylline, 10 mM HEPES, 10 μM pargyline, and/or appropriate concentrations of forskolin for 20 min at 37° C. in 5% CO2. The tested compounds were then added to a final concentration of 0.001 nM to 1 μM and incubated for an additional 15 min at 37° C. in 5% CO2. The medium was aspirated and the reaction was stopped by the addition of 100 mM HCl . […] The plates are stored at 4° C. for 15 min and assayed to determine the linear concentration of cAMP. The appropriate dilution is interpolated from the standard curve of cold cAMP. The assessment of cAMP formation is determined by radioimmunoassay (cAMP radioimmunoassay kit; Advanced Magnetics, Cambridge, Mass.). Radioactivity was quantified using a Packard COBRA Auto Gamma counter, equipped with data reduction software.

[3] = molecular target: T2, α2C Human Adrenergic Receptor (Homo sapiens, UniProt P18825); type: cell-based; set-up: The entire coding region of α2C (1383 bp), including 2 bp of 5′ UT and 400 bp of 3′ UT; expressed in transfected cells; host or cells: LM(tk-) cells; settings: functional cAMP assay
T2 sequence (P18825 1-462): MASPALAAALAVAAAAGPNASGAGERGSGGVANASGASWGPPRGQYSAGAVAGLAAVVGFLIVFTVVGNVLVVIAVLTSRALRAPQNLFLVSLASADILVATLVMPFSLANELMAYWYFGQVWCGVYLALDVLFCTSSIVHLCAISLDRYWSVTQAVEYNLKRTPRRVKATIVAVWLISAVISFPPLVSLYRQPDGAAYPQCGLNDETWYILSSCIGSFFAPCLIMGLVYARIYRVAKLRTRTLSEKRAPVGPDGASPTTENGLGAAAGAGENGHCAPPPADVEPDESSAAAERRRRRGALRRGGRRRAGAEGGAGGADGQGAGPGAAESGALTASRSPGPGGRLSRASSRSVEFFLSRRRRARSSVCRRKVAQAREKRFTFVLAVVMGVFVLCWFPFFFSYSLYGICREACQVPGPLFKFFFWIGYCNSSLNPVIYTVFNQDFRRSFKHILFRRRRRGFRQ
Description: as §1
The insert housing this coding region was an @ 1.8 kb Ncol/EcoRI human spleen genomic fragment which was end-blunted by either T4 polymerase or Klenow fragment of DNA polymerase. Stable cell lines were selected as described above.
as §2

[4] = molecular target: T1, α2B Human Adrenergic Receptor; assay: Equilibrium competition binding, [3H] rauwolscine, membranes of transfected Y-1 cells; settings: cloned human receptor; [3H] rauwolscine; read-out: pKi Alpha-2 B (converted)
rats = settings: systematic administration, reversed by atipamazole or idazoxan; cited from earlier work

Compound	Ki [1]	I.A Alpha-2 B ([2]; functional cAMP assay)	EC50 ([2]; inhibition of forskolin-stimulated cAMP, NA: Not Active, read-out: pEC50 Alpha-2 B (converted))	I.A Alpha-2 C [3]	Ki [4]	antinociception (rats)
Ic1cc(NC2=NCCN2)cc2[nH]cnc12 [Example 54, 7-Iodo-5-(2-imidazolin-2-ylamino)Benzimidazole]	200 nM	0.60	138 nM	0.90	27.5 nM	–
Cc1cccc(C(C)c2cnc[nH]2)c1C (stereo not drawn) [Medetomidine]	–	–	–	–	–	dose-dependent antinociception
